In PubChem BioAssay AID1259407 (Chemical Carcinogenesis Research Information System (CCRIS), 2018):
Active and inactive are the calls of the source. The rule behind the calls is not given here.

Tested on: CCRIS mutagenicity, Ames/micronucleus/aberration tests
Test: CCRIS mutagenicity studies
[1] = Test System: AMES SALMONELLA TYPHIMURIUM, Strain/Indicator: TA98, Metabolic Activation: NONE, Method: STANDARD PLATE
[2] = Test System: AMES SALMONELLA TYPHIMURIUM, Strain/Indicator: TA98, Metabolic Activation: RAT, LIVER, S-9, AROCLOR 1254, Method: STANDARD PLATE
[3] = Test System: AMES SALMONELLA TYPHIMURIUM, Strain/Indicator: TA100, Metabolic Activation: NONE, Method: PREINCUBATION
[4] = Test System: AMES SALMONELLA TYPHIMURIUM, Strain/Indicator: TA100, Metabolic Activation: NONE, Method: STANDARD PLATE
[5] = Test System: AMES SALMONELLA TYPHIMURIUM, Strain/Indicator: TA100, Metabolic Activation: RAT, LIVER, S-9, AROCLOR 1254, Method: STANDARD PLATE
[6] = Test System: AMES SALMONELLA TYPHIMURIUM, Strain/Indicator: TA102, Metabolic Activation: NONE, Method: PREINCUBATION
[7] = Test System: AMES SALMONELLA TYPHIMURIUM, Strain/Indicator: TA104, Metabolic Activation: NONE, Method: PREINCUBATION
[8] = Test System: AMES SALMONELLA TYPHIMURIUM, Strain/Indicator: TA1535, Metabolic Activation: NONE, Method: PREINCUBATION

Q: CC(=O)OC(C)=O was tested. Which mutagenic call (Test System: AMES SALMONELLA TYPHIMURIUM, Strain/Indicator: TA98, Metabolic Activation: HAMSTER, LIVER, S-9, AROCLOR 1254, Method: STANDARD PLATE) did it give?
A: The mutagenic call was “inactive; negative”.

Q: And the mutagenic call (Test System: AMES SALMONELLA TYPHIMURIUM, Strain/Indicator: TA98, Metabolic Activation: NONE, Method: PREINCUBATION)?
A: The mutagenic call was “inactive; negative”.

Q: And the mutagenic call [1]?
A: Its mutagenic call is “inactive; negative”.

Q: What about the mutagenic call [2] of the same molecule?
A: The mutagenic call was “inactive; negative”.

Q: What about the mutagenic call (Test System: AMES SALMONELLA TYPHIMURIUM, Strain/Indicator: TA98, Metabolic Activation: RAT, LIVER, S-9, SODIUM PHENOBARBITAL AND 5,6-BENZOFLAVONE, Method: PREINCUBATION) of the same molecule?
A: Its mutagenic call is “inactive; negative”.

Q: And the mutagenic call (Test System: AMES SALMONELLA TYPHIMURIUM, Strain/Indicator: TA100, Metabolic Activation: HAMSTER, LIVER, S-9, AROCLOR 1254, Method: STANDARD PLATE)?
A: Its mutagenic call is “inactive; negative”.

Q: And the mutagenic call [3]?
A: Its mutagenic call is “inactive; negative”.

Q: What about the mutagenic call [4] of the same molecule?
A: The mutagenic call was “inactive; negative”.

Q: And the mutagenic call [5]?
A: Its mutagenic call is “inactive; negative”.

Q: And the mutagenic call (Test System: AMES SALMONELLA TYPHIMURIUM, Strain/Indicator: TA100, Metabolic Activation: RAT, LIVER, S-9, SODIUM PHENOBARBITAL AND 5,6-BENZOFLAVONE, Method: PREINCUBATION)?
A: Its mutagenic call is “inactive; negative”.

Q: And the mutagenic call [6]?
A: The mutagenic call was “inactive; negative”.

Q: And the mutagenic call (Test System: AMES SALMONELLA TYPHIMURIUM, Strain/Indicator: TA102, Metabolic Activation: RAT, LIVER, S-9, SODIUM PHENOBARBITAL AND 5,6-BENZOFLAVONE, Method: PREINCUBATION)?
A: Its mutagenic call is “inactive; negative”.

Q: And the mutagenic call [7]?
A: Its mutagenic call is “inactive; negative”.

Q: What about the mutagenic call (Test System: AMES SALMONELLA TYPHIMURIUM, Strain/Indicator: TA104, Metabolic Activation: RAT, LIVER, S-9, SODIUM PHENOBARBITAL AND 5,6-BENZOFLAVONE, Method: PREINCUBATION) of the same molecule?
A: Its mutagenic call is “inactive; negative”.

Q: And the mutagenic call (Test System: AMES SALMONELLA TYPHIMURIUM, Strain/Indicator: TA1535, Metabolic Activation: HAMSTER, LIVER, S-9, AROCLOR 1254, Method: STANDARD PLATE)?
A: Its mutagenic call is “inactive; negative”.

Q: And the mutagenic call [8]?
A: Its mutagenic call is “inactive; negative”.

Q: And the mutagenic call (Test System: AMES SALMONELLA TYPHIMURIUM, Strain/Indicator: TA1535, Metabolic Activation: NONE, Method: STANDARD PLATE)?
A: The mutagenic call was “inactive; negative”.

Q: And the mutagenic call (Test System: AMES SALMONELLA TYPHIMURIUM, Strain/Indicator: TA1535, Metabolic Activation: RAT, LIVER, S-9, AROCLOR 1254, Method: STANDARD PLATE)?
A: Its mutagenic call is “inactive; negative”.

Q: And the mutagenic call (Test System: AMES SALMONELLA TYPHIMURIUM, Strain/Indicator: TA1535, Metabolic Activation: RAT, LIVER, S-9, SODIUM PHENOBARBITAL AND 5,6-BENZOFLAVONE, Method: PREINCUBATION)?
A: Its mutagenic call is “inactive; negative”.

Q: And the mutagenic call (Test System: AMES SALMONELLA TYPHIMURIUM, Strain/Indicator: TA1537, Metabolic Activation: HAMSTER, LIVER, S-9, AROCLOR 1254, Method: STANDARD PLATE)?
A: The mutagenic call was “inactive; negative”.

Q: And the mutagenic call (Test System: AMES SALMONELLA TYPHIMURIUM, Strain/Indicator: TA1537, Metabolic Activation: NONE, Method: PREINCUBATION)?
A: Its mutagenic call is “inactive; negative”.

Q: What about the mutagenic call (Test System: AMES SALMONELLA TYPHIMURIUM, Strain/Indicator: TA1537, Metabolic Activation: NONE, Method: STANDARD PLATE) of the same molecule?
A: Its mutagenic call is “inactive; negative”.

Q: And the mutagenic call (Test System: AMES SALMONELLA TYPHIMURIUM, Strain/Indicator: TA1537, Metabolic Activation: RAT, LIVER, S-9, AROCLOR 1254, Method: STANDARD PLATE)?
A: Its mutagenic call is “inactive; negative”.

Q: What about the mutagenic call (Test System: AMES SALMONELLA TYPHIMURIUM, Strain/Indicator: TA1537, Metabolic Activation: RAT, LIVER, S-9, SODIUM PHENOBARBITAL AND 5,6-BENZOFLAVONE, Method: PREINCUBATION) of the same molecule?
A: The mutagenic call was “inactive; negative”.

Q: And the mutagenic call (Test System: AMES SALMONELLA TYPHIMURIUM, Strain/Indicator: TA1538, Metabolic Activation: HAMSTER, LIVER, S-9, AROCLOR 1254, Method: STANDARD PLATE)?
A: Its mutagenic call is “inactive; negative”.

Q: And the mutagenic call (Test System: AMES SALMONELLA TYPHIMURIUM, Strain/Indicator: TA1538, Metabolic Activation: NONE, Method: STANDARD PLATE)?
A: Its mutagenic call is “inactive; negative”.

Q: And the mutagenic call (Test System: AMES SALMONELLA TYPHIMURIUM, Strain/Indicator: TA1538, Metabolic Activation: RAT, LIVER, S-9, AROCLOR 1254, Method: STANDARD PLATE)?
A: Its mutagenic call is “inactive; negative”.

Q: And the mutagenic call (Test System: E. COLI, Strain/Indicator: WP2UVRA/PKM101, Metabolic Activation: NONE, Method: PREINCUBATION)?
A: Its mutagenic call is “inactive; negative”.

Q: And the mutagenic call (Test System: E. COLI, Strain/Indicator: WP2UVRA/PKM101, Metabolic Activation: RAT, LIVER, S-9, SODIUM PHENOBARBITAL AND 5,6-BENZOFLAVONE, Method: PREINCUBATION)?
A: Its mutagenic call is “inactive; negative”.

Q: What about the mutagenic call (Test System: E. COLI, Strain/Indicator: WP2UVRA, Metabolic Activation: NONE, Method: PREINCUBATION) of the same molecule?
A: The mutagenic call was “inactive; negative”.

Q: What about the mutagenic call (Test System: E. COLI, Strain/Indicator: WP2UVRA, Metabolic Activation: RAT, LIVER, S-9, SODIUM PHENOBARBITAL AND 5,6-BENZOFLAVONE, Method: PREINCUBATION) of the same molecule?
A: The mutagenic call was “inactive; negative”.

Q: And the mutagenic call (Test System: MOUSE LYMPHOMA, Strain/Indicator: L5178Y (TK+/TK-), Metabolic Activation: NONE, Method: SUSPENSION/PLATE)?
A: The mutagenic call was “inactive; negative. reevaluation of results: inconclusive”.

Q: And the mutagenic call (Test System: Mouse lymphoma, Strain/Indicator: L5178Y (tk+/tk-), Metabolic Activation: Rat, Liver, S-9, Aroclor 1254, Method: Suspension/plate)?
A: The mutagenic call was “inactive; inconclusive (previous evaluation negative)”.

Q: Cc1ccc2c(C)c3ccccc3c(C)c2c1 was tested. Which mutagenic call [1] did it give?
A: Its mutagenic call is “active; positive”.

Q: What about the mutagenic call [2] of the same molecule?
A: Its mutagenic call is “active; positive”.

Q: What about the mutagenic call [4] of the same molecule?
A: The mutagenic call was “inactive; negative”.

Q: What about the mutagenic call [5] of the same molecule?
A: Its mutagenic call is “active; positive”.

Q: Which results are given for Oc1ccc(O)c(O)c1?
A: mutagenic call (End Point: IN VITRO CHROMOSOMAL ABERRATIONS, Test System: HUMAN PERIPHERAL LYMPHOCYTES, Metabolic Activation: NONE): active; positive (ploidy changes); mutagenic call (End Point: IN VITRO CHROMOSOMAL ABERRATIONS, Test System: HUMAN PERIPHERAL LYMPHOCYTES, Metabolic Activation: NONE, Method: FISH): active; positive (ploidy); greater effects on certain chromosomes; mutagenic call (End Point: IN VITRO CHROMOSOMAL ABERRATIONS, Test System: HUMAN PERIPHERAL LYMPHOCYTES, Metabolic Activation: NONE, Method: FISH - DUAL COLOR PROBES): active; positive (ploidy changes in chromosomes 7 and 8); mutagenic call (End Point: IN VITRO CHROMOSOMAL ABERRATIONS, Test System: HUMAN PERIPHERAL LYMPHOCYTES, Metabolic Activation: NONE, Method: FISH- DUAL COLOR PROBES): inactive; negative for translocations; mutagenic call (End Point: IN VITRO MICRONUCLEUS, Test System: HUMAN PERIPHERAL LYMPHOCYTES, Metabolic Activation: NONE, Method: FISH - DUAL COLOR PROBES): active; positive; mutagenic call (Test System: AMES SALMONELLA TYPHIMURIUM, Strain/Indicator: TA97, Metabolic Activation: RAT, LIVER, S-9, AROCLOR 1254, Method: PREINCUBATION): inactive; negative; mutagenic call (Test System: AMES SALMONELLA TYPHIMURIUM, Strain/Indicator: TA97, Metabolic Activation: RAT, LIVER, S-9, PHENOBARBITAL, Method: PREINCUBATION): inactive; negative; mutagenic call (Test System: AMES SALMONELLA TYPHIMURIUM, Strain/Indicator: TA98, Metabolic Activation: RAT, LIVER, S-9, AROCLOR 1254, Method: PREINCUBATION): inactive; negative; mutagenic call (Test System: AMES SALMONELLA TYPHIMURIUM, Strain/Indicator: TA98, Metabolic Activation: RAT, LIVER, S-9, PHENOBARBITAL, Method: PREINCUBATION): inactive; negative; mutagenic call (Test System: AMES SALMONELLA TYPHIMURIUM, Strain/Indicator: TA100, Metabolic Activation: NONE, Method: FLUCTUATION TEST): inactive; negative; mutagenic call [3]: inactive; negative; mutagenic call (Test System: AMES SALMONELLA TYPHIMURIUM, Strain/Indicator: TA100, Metabolic Activation: RAT, LIVER, S-9, AROCLOR 1254, Method: PREINCUBATION): inactive; negative; mutagenic call (Test System: AMES SALMONELLA TYPHIMURIUM, Strain/Indicator: TA100, Metabolic Activation: RAT, LIVER, S-9, PCB, Method: FLUCTUATION TEST): active; positive; mutagenic call (Test System: AMES SALMONELLA TYPHIMURIUM, Strain/Indicator: TA100, Metabolic Activation: RAT, LIVER, S-9, PHENOBARBITAL, Method: PREINCUBATION): inactive; negative; mutagenic call [6]: inactive; negative; mutagenic call (Test System: AMES SALMONELLA TYPHIMURIUM, Strain/Indicator: TA102, Metabolic Activation: RAT, LIVER, S-9, AROCLOR 1254, Method: PREINCUBATION): inactive; negative; mutagenic call [7]: inactive; negative; mutagenic call [8]: inactive; negative; mutagenic call (Test System: AMES SALMONELLA TYPHIMURIUM, Strain/Indicator: TA1535, Metabolic Activation: RAT, LIVER, S-9, AROCLOR 1254, Method: PREINCUBATION): inactive; negative; mutagenic call (Test System: CHINESE HAMSTER V-79, Strain/Indicator: V-79/6-THIOGUANINE, Metabolic Activation: NONE): active; positive
